Data: patent US10987317B2, “Inhibition of glutaminase C” (Cornell University, priority 2009, dated 2021)

Legend:
[1] = tested on: NIH 3T3 cells stably expressing Cdc42(F28L), Rac(F28L), RhoC(F30L); assay: Transforming activity of constitutively active Rho GTPase mutants; type: cell-based; conditions: 10 μM
Method: (§1) FIGS. 2A-G illustrate effects of 968 on the transforming activity of constitutively active Rho GTPases and human breast cancer cells. […] Cells are scored after 14 days and plotted as the percentage of the total number of colonies greater than […] in diameter. Data represent the average of 3 experiments (±s.d.). […] Data represent the average of 3 experiments (±s.d.). […] Data represent the average of 3 experiments (±s.d.). […] After 24 hours at 37° C. the migratory cells are fixed, stained with GIEMSA, and counted. Data represent the average of 3 experiments (±s.d.). […] Data represent the average of 3 experiments (±s.d.). […] Data represent the average of 3 experiments (±s.d.). […] Data represent the average of 3 experiments (±s.d.).

MDA-MB231 cells = assay: Breast cancer cell soft agar colony formation and growth; type: cell-based, human; conditions: 10 μM
Method: as §1

SKBR3 cells = assay: as above; type: cell-based, human
Method: as §1
(§2) 100%=620 moles of glutamine hydrolyzed per minute per mole of enzyme. Data represent the average of 3 experiments (±s.d.). […] Following precipitation of the beads and re-suspension, the samples are analyzed by Western blotting with anti-V5 antibody. […] Data represent the average of 3 experiments (±s.d.). […] Data represent the average of 3 experiments (±s.d.). […] Data represent the average of 3 experiments (±s.d.). FIG. 3E NIH 3T3 cells transiently expressing Dbl are assayed for focus formation in the presence of 10 μM 968 alone or together with […] dimethyl α-ketoglutarate. […] 100%=680 nM glutamine hydrolyzed per minute per 10^5 cells. Data are the average of 3 experiments (=s.d.). […] 100%=750 nM glutamine hydrolyzed per minute per 10^5 cells. Data represent the average of 3 experiments (±s.d.).

HMECs = assay: Growth of normal mammary epithelial cells; type: cell-based, human; conditions: 10 μM, 6 days
[2] = tested on: GA activity in SKBR3 cells; assay: GA activity in mitochondrial fractions; type: cell-based, human; conditions: 10 μM, phosphate-independent
Method: as §2
FIGS. 4A-E illustrate the role of glutaminase C activity in cellular transformation. […] Data represent the average of 3 experiments (±s.d.). […] Data represent the average of 3 experiments (±s.d.). […] 100% represents the activity measured in untreated Dbl-transformed cells. The data represent the average of 2 experiments. […] 100% represents the activity measured in untreated SKBR3 cells. The data represent the average of 2 experiments. […] Data represent the average of 3 experiments (±s.d.).
FIGS. 11A-E illustrate the effects of different treatments on GA activity. […] The addition of Pi stimulated the GA activity in control 3T3 cells, Dbl-expressing cells, and Cdc42(F28L)-expressing cells by ˜6-fold, 2-fold, and 3-fold, respectively. 100% represents the Pi-stimulated activity measured for Dbl-transformed cells that are not treated with 968. Data is the average of 3 experiments (±s.d.). […] The addition of Pi stimulated the GA activity of HMECs, MDA-MB231 cells, and SKBR3 cells by ˜5-fold, 2-fold, and 1.4-fold, respectively. […] The data are plotted as the percentage of GA activity measured for untreated SKBR3 cells and represent the average of 2 experiments. […] 100% represents the P1-stimulated activity measured for untreateDbl-transformed cells. […]

CN(C)c1ccc(C2Nc3ccc4ccccc4c3C3=C2C(=O)CC(C)(C)C3)cc1Br (centres unmarked) [Compound 968, 5-[3-bromo-4-(dimethylamino)phenyl]-2,2-dimethyl-2,3,5,6-tetrahydrobenzo[a]]
colony formation in soft-agar [1]: blocking
growth under low serum conditions ([1]; 1% calf serum): blocking
growth to high density ([1]; 10% calf serum, 6 days): blocking
invasive activity ([1]; Matri-gel, 24 hours): inhibiting
colony formation in soft agar (MDA-MB231 cells): inhibits
growth to high density and in low serum (MDA-MB231 cells): inhibits
colony formation in soft agar (SKBR3 cells; 10 μM): inhibits
growth to high density and in low serum (SKBR3 cells; 10 μM): inhibits
reversal of 968-inhibition by cell-permeable analog of α-ketoglutarate (SKBR3 cells; growth in low serum, 10 μM 968 with 7 μM dimethyl α-ketoglutarate): circumvented
growth of HMECs (HMECs): little effect
basal GA activity [2]: sensitive
